These results are taken from paper PMC7934871 (JCI Insight, 2021).

Test [1] concerns the target T1, acetyl-STAT3 (Homo sapiens, UniProt P40763).
T1 construct: endogenous in cells; host or cells: HCT116
Briefly: Immunoprecipitation of PS-oligo and Western blotting, acetyl-STAT3. Type of test: binding. To be noted: HCT116 cells, immunoprecipitation of PS-oligo, Western blotting. On the procedure:
Whole cell lysates or tissue homogenates were prepared by using RIPA lysis buffer (50 mM Tris at pH 7.4, 150 mM NaCl, 1 mM EDTA, 0.5% NP-40, 1 mM NaF, 15% glycerol, and 20 mM β-glycerophosphate). A protease inhibitor cocktail (Mini Protease Inhibitor Cocktail; Roche) and a tyrosine phosphatase inhibitor, sodium orthovanadate (Na3VO4, 1 mM), were added freshly to the lysis buffer. Protein amounts were determined by BCA using a Thermo Fisher Scientific kit. Normalized protein amounts were subjected to an SDS-PAGE and transferred onto a nitrocellulose membrane for Western blotting. Proteins were visualized with a chemiluminescent detection kit (Pierce, Thermo Fisher Scientific). The protein levels for STAT1 (sc-346, E-23), STAT3 (sc-482, C-20), STAT5 (sc-74442, A-9), Crm1 (exportin 1) (sc-5595, H-300), CAS (exportin 2) (sc-271537, H-2), exportin 5 (sc-66885, H-300), and exportin 7 (sc-98639, H-82) were determined using antibodies from Santa Cruz Biotechnology Inc. Anti–exportin 3 (exportin T, 630622, LOS1 05-1525), anti–exportin 4 (3499-1), and anti–exportin 6 (11408-1-AP) were from MilliporeSigma, Epitomics, and Proteintech, respectively. […]
labeled PS-acet.-STAT3 peptide. The fluorescence intensity of FAM-labeled PS-acet.-STAT3 peptide in the cells was quantified by flow cytometry. […]
quantification of FAM. […]
above were assessed by qRT-PCR. […]
In general terms: A western blot detects proteins with antibodies after separation by electrophoresis.

In test [2] the test system is KPC mouse PDAC cells. Put plainly: KPC mouse PDAC tumor model in C57BL/6 mice. Type of test: in vivo. To be noted: KPC s.c. in C57BL/6 mice, i.v. 1 mg/kg every other day for 18 days (combination 0.5 mg/kg each), n = 5. The procedure:
SD is shown. […] SD is shown.
Mouse care and experimental procedures were performed under pathogen-free conditions in accordance with established institutional guidance and approved IACUC protocols from Research Animal Care Committee of the City of Hope. For s.c. tumor challenge, 5 × 10^6 HCT116 cells were injected into NSG mice from The Jackson Laboratory or animal resource core facility at the City of Hope. After tumors reached an average size of 80~100 mm^3, mice were locally or intravenously treated with 1 mg/kg of PO- or PS-peptides (Anaspec) every day or every other day. Control animals were treated with the equal volume of HBSS (Invitrogen, Thermo Fisher Scientific). Tumor growth was measured by a digital caliper every other day. To study the effects of the modified peptides at protein and gene levels, mice were euthanized 4–6 weeks after tumor injection. B16 melanoma lung metastasis was performed by injecting 0.5 × 10^6 B16 cells into bloodstream of C57BL/6 mice (The Jackson Laboratory). One day after tumor challenge, mice were treated intravenously (retro-orbitally) with 1 mg/kg of PO- or PS-acet.-STAT3, PS-unacet.-STAT3, or PS-STAT3-K685R peptides every other day until the endpoint as indicated. […] Lungs were then analyzed for immune responses by immunostaining followed by confocal imaging. […] Tumor growth was measured by a digital caliper every other day. […]

Non-standard residues stand in square brackets, D forms with d. No end group written: not given here. pY = N[C@@H](Cc1ccc(OP(=O)(O)O)cc1)C(=O)O

T1 sequence (P40763 whole entry): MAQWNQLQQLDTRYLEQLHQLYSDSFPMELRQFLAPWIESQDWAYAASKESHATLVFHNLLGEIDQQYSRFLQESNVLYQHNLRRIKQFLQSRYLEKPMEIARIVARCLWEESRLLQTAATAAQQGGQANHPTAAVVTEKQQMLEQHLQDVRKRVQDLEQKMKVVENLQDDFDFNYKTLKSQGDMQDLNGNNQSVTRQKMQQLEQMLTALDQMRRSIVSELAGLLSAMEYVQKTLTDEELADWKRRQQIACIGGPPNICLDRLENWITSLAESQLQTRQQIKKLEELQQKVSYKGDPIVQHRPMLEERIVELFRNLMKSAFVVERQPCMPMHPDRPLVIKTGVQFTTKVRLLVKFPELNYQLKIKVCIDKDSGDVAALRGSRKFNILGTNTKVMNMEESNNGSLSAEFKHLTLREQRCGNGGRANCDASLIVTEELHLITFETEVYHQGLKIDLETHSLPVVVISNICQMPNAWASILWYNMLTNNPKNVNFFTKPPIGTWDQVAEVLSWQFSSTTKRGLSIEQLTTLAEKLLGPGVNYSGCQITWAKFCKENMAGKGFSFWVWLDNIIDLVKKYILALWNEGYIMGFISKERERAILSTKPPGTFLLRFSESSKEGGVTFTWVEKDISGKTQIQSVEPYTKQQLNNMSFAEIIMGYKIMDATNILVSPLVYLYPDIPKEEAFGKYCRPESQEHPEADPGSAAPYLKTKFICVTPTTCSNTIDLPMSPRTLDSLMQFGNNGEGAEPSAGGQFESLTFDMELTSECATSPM

Consider “PDIPKEEAFGK685(Ac)YCRPESQEHPC-linker-T*C*C*A*T*G*A*G*C*T*T*C*C*T*G*A*T*G*C*T [PS-acet.-STAT3 peptide]”, for which the “binding to acetyl-STAT3” value in test [1] is given as “directly bound”. Consider “PS-Gp130: PS-conjugated Gp130 peptide (amino acids 901–910) with phospho-Tyr905 (MPKS[pY]LPQTV; also: phosphorothioate oligonucleotide conjugate; UniProt P40189 901-910, looked up, fragment)”, for which the PDAC tumor growth entry in test [2] is listed as “significantly inhibited”.
